Patent US10556907B2 (AbbVie Inc., priority 2015, dated 2020)
pEC50: −log10 of the molar value. Counter-ions that a name gives are not always drawn.

What was measured:
Assay type in all cases: cell-based
[1] = target: T1, human EDG8 (S1PR5) receptor (Homo sapiens, UniProt Q9H228); experiment: Method 2: Aequorin assay, cell clone CHO-A21-EDG8 #12; conditions: agonist potency, determined with method 2 (symbols E-G); read-out: S1P5 EC50 range
T1 construct: expressed in transfected cells; host or cells: CHO (clone CHO-A21-EDG8 #12)
Procedure: (§1) Agonistic activity was measured using two different methods, described below.
(§2) Genetically Engineered Cells
(§3) Cell clone CHO-A21-Edg1 #17 carries the transgenes human EDG1 (S1PR1) receptor (Accession number NP_001391.2), mitochondrially targeted Aequorin (active part corresponds to accession number 1SL8_A) and chimaeric Gaqi5=Gaq modified with the 5 C-terminal amino-acids replaced with those of the Gai protein (DCGLF). CHO-A2-S1P3 Mix is a cell pool ectopically expressing human EDG3 (S1PR3) receptor (Accession number NP_005217.2) mitochondrially targeted Aequorin (active part has a sequence similar to accession number AY601106.1) and GNA16 (Accession number NP_002059.3). Cell clone CHO-A21-EDG8 #12 carries the transgenes human EDG8 (S1PR5) receptor (Accession number NP_110387.1), mitochondrially expressed Aequorin (active part corresponds to accession number 1SL8_A) and chimaeric Gaqi5 (Gaq modified to present the 5 last amino-acids of the Gai protein “DCGLF”; see above). Cells are grown to mid-log phase in culture medium (HAM's F12, 10% FBS, 100 IU/mL penicillin, 100 μg/mL streptomycin, 250 μg/mL Zeocin, 400 μg/mL G418). 18 hours prior to frozen cells preparation, the medium is changed to remove the antibiotics.
(§4) 18 hours prior to the test, vials of frozen cells are quickly thawed in a 37° C. water bath, cells are recovered by centrifugation and resuspended in assay buffer (DMEM/HAM's F12 with HEPES, without phenol red+0.1% fatty acid-free BSA). Cells are gently agitated in suspension overnight at RT in presence of 5 μM of Coelenterazine h (Molecular Probes). On the day of the test, cells are diluted to their final working concentrations in assay buffer and agitated in suspension for 1 h at RT. Cells are then placed in the luminescence reader (Hamamatsu Functional Drug Screening System 6000, FDSS6000). During cells incubation, compounds are prepared in 100% DMSO, and subsequently diluted in assay buffer. Compounds are then dispensed in the assay plate (black, clear-bottom, 384-well plate). After binding of agonists to the human S1P receptor the intracellular calcium concentration increases and binding of calcium to the Aequorin/Coelenterazine complex leads to an oxidation reaction of coelenterazine, which results in the production of […], coelenteramide, CO2 and light (Dmax 469 nm). The luminescent response is dependent on the agonist concentration. For agonist testing, 30 μL of cell suspension are injected on 30 μL of test compound or reference agonist in the assay plate. The resulting emission of light is recorded for 90 seconds using the FDSS6000. Dose response curves with the reference compounds are performed before testing the compounds. S1P is the reference agonist and JTE-013 the reference antagonist for S1P2. […]
(§5) Luminescence data are integrated over the reading interval for agonist and antagonist modes. To standardize the emission of recorded light (determination of the “100% signal”) across plates and across different experiments, some of the wells contain 100 μM digitonin or a saturating concentration of ATP (20 μM). Plates also contain the reference agonist at a concentration equivalent to the EC80 obtained during the test validation and the EC100. Dose-response data from test compounds were analyzed with XLfit (IDBS) software using nonlinear regression applied to a sigmoidal dose-response model and the following equation: • XL Fit fit Model 203: 4 Parameter Logistic Model • A: Bottom • B: TOP • C: LogEC50 • D: Hill fit=(A+((B−A)/(1+(((10^C)/x)^D)))) inv=((10^C)/((((B−A)/(y−A))−1)^(1/D))) res=(y−fit)

[2] = target: T2, human EDG1 (S1PR1) receptor (Homo sapiens, UniProt P21453); experiment: Method 2: Aequorin assay, cell clone CHO-A21-Edg1 #17; conditions: (2): determined with method 2; read-out: S1P1 EC50
T2 construct: expressed in transfected cells; host or cells: CHO (clone CHO-A21-Edg1 #17)
Procedure: as §1, §2, §3, §4, §5

[3] = target: T3, human EDG3 (S1PR3) receptor (Homo sapiens, UniProt Q99500); experiment: Method 2: Aequorin assay, cell pool CHO-A2-S1P3 Mix; conditions: (2): determined with method 2
T3 construct: expressed in transfected cells; host or cells: CHO (cell pool CHO-A2-S1P3 Mix)
Procedure: as §1, §2, §3, §4, §5

[4] = target: T4, human S1PR1 receptor (Homo sapiens, UniProt P21453); experiment: Method 1: intracellular Ca2+ release (FLIPR, Calcium 5) in recombinant CHO-K1 cells; conditions: (1): determined with method 1; read-out: S1P1 EC50
T4 construct: host or cells: CHO-K1
Summary of the method: (§6)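 For antagonist mode, compounds were pre-incubated 10 min before phospho-fingolimod at EC80; in agonist mode, compounds were added directly to Calcium 5-loaded CHO-K1 cells co-expressing Gq/i5. Fluorescence was measured on FLIPR, and EC50 was fitted relative to the phospho-fingolimod curve.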

[5] = target: T5, human S1PR3 receptor (Homo sapiens, UniProt Q99500); experiment: as above; conditions: (1): determined with method 1; read-out: S1P3 EC50
T5 construct: host or cells: CHO-K1
Summary of the method: as §6

[6] = target: T6, human S1PR4 receptor (Homo sapiens, UniProt O95977); experiment: as above; conditions: (1): determined with method 1; read-out: S1P4 EC50
T6 construct: host or cells: CHO-K1
T6 sequence (O95977 1-384): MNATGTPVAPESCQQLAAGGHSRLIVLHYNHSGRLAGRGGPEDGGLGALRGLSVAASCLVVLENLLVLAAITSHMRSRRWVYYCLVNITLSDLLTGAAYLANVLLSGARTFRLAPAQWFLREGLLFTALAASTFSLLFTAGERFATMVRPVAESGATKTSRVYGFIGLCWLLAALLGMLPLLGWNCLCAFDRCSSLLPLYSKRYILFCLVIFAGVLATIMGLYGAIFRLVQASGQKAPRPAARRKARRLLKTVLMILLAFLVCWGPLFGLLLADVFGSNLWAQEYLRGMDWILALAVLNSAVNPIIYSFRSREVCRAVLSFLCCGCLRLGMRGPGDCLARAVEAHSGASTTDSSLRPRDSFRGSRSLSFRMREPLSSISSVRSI
Summary of the method: as §6

[7] = target: T7, human S1PR5 receptor (Homo sapiens, UniProt Q9H228); experiment: as above; conditions: agonist potency, determined with method 1 (symbols A-D); read-out: S1P5 EC50 range
T7 construct: host or cells: CHO-K1
Summary of the method: as §6

T1 sequence (Q9H228 whole entry): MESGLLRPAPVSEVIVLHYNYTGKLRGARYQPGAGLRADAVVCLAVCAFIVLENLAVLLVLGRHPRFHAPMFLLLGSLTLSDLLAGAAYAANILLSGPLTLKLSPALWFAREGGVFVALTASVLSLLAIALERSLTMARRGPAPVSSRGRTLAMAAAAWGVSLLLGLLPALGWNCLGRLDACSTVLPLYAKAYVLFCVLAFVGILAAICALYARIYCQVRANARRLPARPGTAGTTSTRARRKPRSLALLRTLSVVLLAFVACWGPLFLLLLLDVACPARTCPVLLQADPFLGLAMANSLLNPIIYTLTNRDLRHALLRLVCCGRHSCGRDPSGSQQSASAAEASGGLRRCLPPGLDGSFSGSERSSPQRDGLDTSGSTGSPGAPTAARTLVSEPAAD
T7 sequence (Q9H228 whole entry): as above
T2 sequence (P21453 whole entry): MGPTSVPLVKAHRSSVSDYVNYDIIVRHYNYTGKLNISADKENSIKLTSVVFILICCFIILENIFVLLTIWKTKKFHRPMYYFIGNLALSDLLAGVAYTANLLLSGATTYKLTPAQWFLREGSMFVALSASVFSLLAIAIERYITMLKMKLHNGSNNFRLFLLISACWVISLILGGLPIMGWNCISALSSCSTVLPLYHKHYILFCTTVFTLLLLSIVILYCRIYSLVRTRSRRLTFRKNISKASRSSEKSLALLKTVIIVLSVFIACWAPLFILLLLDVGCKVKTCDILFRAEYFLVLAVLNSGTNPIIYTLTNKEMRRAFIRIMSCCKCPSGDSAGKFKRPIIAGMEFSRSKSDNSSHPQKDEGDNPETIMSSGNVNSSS
T4 sequence (P21453 whole entry): as above
T3 sequence (Q99500 whole entry): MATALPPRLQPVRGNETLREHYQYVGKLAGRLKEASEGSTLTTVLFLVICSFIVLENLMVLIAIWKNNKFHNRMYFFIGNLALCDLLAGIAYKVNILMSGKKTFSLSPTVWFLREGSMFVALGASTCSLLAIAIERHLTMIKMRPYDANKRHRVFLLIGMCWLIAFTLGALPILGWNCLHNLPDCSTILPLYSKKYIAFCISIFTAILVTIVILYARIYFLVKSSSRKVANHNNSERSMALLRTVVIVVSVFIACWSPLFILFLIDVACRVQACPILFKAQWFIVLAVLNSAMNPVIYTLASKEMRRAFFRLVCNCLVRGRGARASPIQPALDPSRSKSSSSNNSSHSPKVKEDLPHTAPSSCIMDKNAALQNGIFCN
T5 sequence (Q99500 whole entry): as above

Structure (SMILES)	pEC50 [1]	pEC50 [2]	pEC50 [3]	pEC50 [4]	pEC50 [5]	pEC50 [6]	pEC50 [7]
CC(CN1CCc2nc(-c3ccc(OCc4ccccc4)cc3)ncc2C1)C(=O)O (stereo not shown) [Compound 6, 3-(2-(4-(benzyloxy)phenyl)-7,8-dihydropyrido[4,3-d]pyrimidin-6(5H)-yl)-2-methylpropanoic acid]	6.00 to 7.00	< 6.00	< 6.00	–	–	–	–
CC(CN1CCc2nc(-c3ccc(OCc4c(Cl)cccc4Cl)cc3)ncc2C1)C(=O)O (stereo not shown) [Compound 7, 3-(2-(4-(2,6-dichlorobenzyloxy)phenyl)-7,8-dihydropyrido[4,3-d]pyrimidin-6(5H)-yl)-2-methylpropanoic acid]	6.00 to 7.00	< 6.00	< 6.00	–	–	–	–
CC(CN1CCc2nc(-c3ccc(OCc4cc(F)cc(F)c4)cc3)ncc2C1)C(=O)O (stereo not shown) [Compound 9, 3-(2-(4-((3,5-difluorobenzyl)oxy)phenyl)-7,8-dihydropyrido[4,3-d]pyrimidin-6(5H)-yl)-2-methylpropanoic acid]	6.00 to 7.00	< 6.00	< 6.00	–	–	–	–
O=C(O)CCN1CCc2nc(-c3ccc(OCc4cccc(F)c4F)cc3)ncc2C1 [Compound 69, 3-(2-(4-((2,3-difluorobenzyl)oxy)phenyl)-7,8-dihydropyrido[4,3-d]pyrimidin-6(5H)-yl)propanoic acid]	5.00 to 6.00	< 6.00	< 6.00	–	–	–	–
O=C(O)CCN1CCc2nc(-c3ccc(OCc4c(Cl)cccc4Cl)cc3)ncc2C1 [Compound 70, 3-(2-(4-((2,6-dichlorobenzyl)oxy)phenyl)-7,8-dihydropyrido[4,3-d]pyrimidin-6(5H)-yl)propanoic acid]	6.00 to 7.00	< 6.00	< 6.00	–	–	–	–
CC(CN1CCc2nc(-c3ccc(OCc4ccccc4)cc3)ccc2C1)C(=O)O (stereo not shown) [Compound 101, 3-(2-(4-(benzyloxy)phenyl)-7,8-dihydro-1,6-naphthyridin-6(5H)-yl)-2-methylpropanoic acid]	6.00 to 7.00	< 6.00	< 6.00	–	–	–	–
CC(CC(=O)O)N1CCc2nc(-c3ccc(OCc4ccccc4)cc3)ccc2C1 (stereo not shown) [Compound 113, 3-(2-(4-(benzyloxy)phenyl)-7,8-dihydro-1,6-naphthyridin-6(5H)-yl)butanoic acid]	5.00 to 6.00	< 6.00	< 6.00	–	–	–	–
O=C(O)CCN1CCc2nc(-c3ccc(OCc4ccccc4)cc3)ccc2C1 [Compound 129, 3-(2-(4-(benzyloxy)phenyl)-7,8-dihydro-1,6-naphthyridin-6(5H)-yl)propanoic acid]	6.00 to 7.00	< 6.00	< 6.00	–	–	–	–
O=C(O)CCN1CCc2nc(-c3ccc(OCc4c(Cl)cccc4Cl)cc3)ccc2C1 [Compound 130, 3-(2-(4-((2,6-dichlorobenzyl)oxy)phenyl)-7,8-dihydro-1,6-naphthyridin-6(5H)-yl)propanoic acid]	6.00 to 7.00	< 6.00	< 6.00	–	–	–	–
O=C(O)CCN1CCc2nc(-c3ccc(OCc4cccc(F)c4F)cc3)ccc2C1 [Compound 131, 3-(2-(4-((2,3-difluorobenzyl)oxy)phenyl)-7,8-dihydro-1,6-naphthyridin-6(5H)-yl)propanoic acid]	> 7.00	< 6.00	< 6.00	–	–	–	–
Cc1ccc(C(F)(F)F)c(COc2ccc(-c3ncc4c(n3)CCN(CC(C)CC(=O)O)C4)cc2)c1 (stereo not shown) [Compound 275, 3-methyl-4-[2-[4-[[5-methyl-2-(trifluoromethyl)phenyl]methoxy]phenyl]-7,8-dihydro-5H-pyrido[4,3-d]pyrimidin-6-yl]butanoic acid 2,2,2-trifluoroacetic acid salt]	–	–	–	< 6.00	< 6.00	< 6.00	7.00 to 8.00
CC(CC(=O)O)CN1CCc2nc(-c3ccc(C(F)(F)Cc4ccc(Cl)cc4F)cc3)ncc2C1 (stereo not shown) [Compound 277]	–	–	–	< 6.00	< 6.00	< 6.00	7.00 to 8.00
Cc1ccc(COc2ccc(-c3ncc4c(n3)CCN(CC(C)CC(=O)O)C4)c(F)c2)cc1C(F)(F)F (stereo not shown) [Compound 279, 4-[2-[2-fluoro-4-[[4-methyl-3-(trifluoromethyl)phenyl]methoxy]phenyl]-7,8-dihydro-5H-pyrido[4,3-d]pyrimidin-6-yl]-3-methyl-butanoic acid 2,2,2-trifluoroacetic acid salt]	–	–	–	< 6.00	< 6.00	< 6.00	7.00 to 8.00
O=C(O)CC1(CN2CCc3nc(-c4ccc(OCc5ccc(Cl)cc5)cc4)ncc3C2)CC1 [Compound 281, 2-((4(2-(4-((4-chlorobenzyl)oxy)phenyl)-7,8-dihydropyrido[4,3-d]pyrimidin-6(5H)-yl)methyl)cyclopropyl)acetic acid]	–	–	–	< 6.00	< 6.00	< 6.00	7.00 to 8.00
CC(CC(=O)O)CN1CCc2nc(-c3ccc(OCc4ccc(C(C)(C)C)cc4)cc3F)ncc2C1 (stereo not shown) [Compound 283, 4-[2-[4-[(4-tert-butylphenyl)methoxy]-2-fluoro-phenyl]-7,8-dihydro-5H-pyrido[4,3-d]pyrimidin-6-yl]-3-methyl-butanoic acid 2,2,2-trifluoroacetic acid salt]	–	–	–	< 6.00	< 6.00	< 6.00	7.00 to 8.00
CC(CC(=O)O)CN1CCc2nc(-c3ccc(OCc4ccccc4Cl)cc3F)ncc2C1 (stereo not shown) [Compound 284, 4-[2-[4-[(2-chlorophenyl)methoxy]-2-fluoro-phenyl]-7,8-dihydro-5H-pyrido[4,3-d]pyrimidin-6-yl]-3-methyl-butanoic acid 2,2,2-trifluoroacetic acid salt]	–	–	–	< 6.00	< 6.00	< 6.00	7.00 to 8.00
O=C(O)CC1(CN2CCc3nc(-c4ccc(OCc5cccc(Cl)c5)cc4)ncc3C2)CC1 [Compound 285, 2-((4(2-(4-((3-chlorobenzyl)oxy)phenyl)-7,8-dihydropyrido[4,3-d]pyrimidin-6(5H)-yl)methyl)cyclopropyl)acetic acid]	–	–	–	< 6.00	< 6.00	> 6.00	6.00 to 7.00
